Results on 1 compound are retold here after US11925649B2, “Treatments for diabetic neuropathy” (University of Manitoba, priority 2010, dated 2024).

The test system of experiment [1] is sensory neurons from DRG of Sprague Dawley rat. Kind of experiment: Total neurite outgrowth at low concentrations of M1R antagonists (immunostaining). To be noted: 24 hr culture. It is filed as cell-based.
Method: Sensory neurons from cervical, thoracic and lumbar DRG of an adult 3-4 month old male Sprague Dawley rat were isolated and dissociated using the method described in Example 1, and then were cultured for 24 h in serum-free and insulin-free F12 medium in the presence of modified N2 additives. […] Neurite outgrowth was then assessed after a culture period of 24 hr.
Total neurite lengths (i.e., the sum of the length of all neurites produced by an individual neuron) were assessed using an immunostaining method. […] Four images were captured per well and the replicate well frequency was set to n=6. The neuronal marker β-tubulin III (Sigma-Aldrich Canada Ltd.) was applied to formalin fixed cells. The marker was tagged with the fluorescent conjugate Alexa Fluor 488 (Invitrogen Canada Ltd.). Fluorescent images were collected using an Olympus IX71 inverted microscope with a 20×/0.45 PH1 [sequence] objective that was suitable for resolving images on plastic surfaces. […] Captured image fluorescence was thereafter converted to a grayscale 8-bit image to quantify total pixel volume. […] Total pixel volume of the neuron specific cell bodies and neurites were quantified. […] The net pixel volume was normalized against the number of neuronal cells per quantified field.
Experiment [2] concerns STZ diabetic C57Bl6J mice. Kind of experiment: Prophylactic subcutaneous injections in STZ diabetic mice. It is filed as in vivo, mouse.
Method: Male C57Bl6J mice were made diabetic with 2 injections of 90 mg/kg STZ on consecutive days, and then separated into four groups.
Two months after the second STZ injection, the function of the small sensory neurons in all five groups of mice were determined by measuring hind paw thermal response latency using a modified Hargreaves apparatus (UARD, San Diego, CA, US) with a heating rate of approximately 1° C./sec from a baseline of 30° C. and with a cut-off at 20 seconds as taught by Calcutt et al. (2004, Diabetologia 47: 718-724). […] Statistical analysis was done using the one-way ANOVA with post-hoc comparison using Tukey's test.
The structural integrity of small sensory neurons was assessed by measuring intraepidermal nerve fiber (IENF) profiles in hind paw plantar skin that was immersion fixed in 4% paraformaldehyde and processed to paraffin blocks. Sections (6 μm) were stained with the pan-neuronal marker PGP9.5 (1:1000, Biogenesis Ltd., Poole, UK) and viewed under a light microscope to allow counting of IENF and sub-epidermal nerve profiles (SNP) per unit length of the dermal: epidermal border using the technique taught by Beiswenger et al. (2008, Neurosci Lett. 442, 267-272). […] Statistical analyses were done using one-way ANOVA followed by Tukey's test.
Motor nerve conduction velocity was measured under isoflurane anesthesia and core and nerve temperature were maintained at 37° C. using a heating pad and lamps following the teachings of Jolivalt et al, (2011, Diabetes Obesity and Metabolism, June 2 Epub ahead of print). The sciatic nerve was stimulated (5V, 0.05 ms pulse, square wave) with needle electrodes at the sciatic notch or ankle. […] The difference in response latencies of the M wave after stimulation at the sciatic notch and ankle was recorded as the time required for the motor nerve conduction between the stimulation sites. The distance between stimulation sites was measured on the surface of the fully extended hind limb and divided by the difference in M wave latencies to calculate sciatic motor nerve conduction velocity (MNCV). […]
Experiment [3] has as its system STZ diabetic C57Bl6J mice. In words: Prophylactic topical hydrogel application in STZ diabetic mice. It is filed as in vivo, mouse. As for the experimental part:
Male C57Bl6J mice were made diabetic with 2 injections of 90 mg/kg STZ on consecutive days, and then separated into three groups. There were also two groups control (non-diabetic) mice. The first group of control (non-diabetic) mice received daily topical treatment with 50 μl Intrasite® hydrogel (Intrasite is a registered trademark of T. J. Smith and Nephew, Hull, England) to both hind paws, with a controlled exposure time of 20 minutes. […] The third group of mice were diabetic mice that received daily topical treatment with 50 μl hydrogel to both hind paws.
Two months after the second STZ injection, the function of the small sensory neurons in all five groups of mice were determined by measuring hind paw thermal response latency following the procedure described in Example 7.
The structural integrity of small sensory neurons was assessed by measuring IENF profiles in hind paw plantar skin as described in Example 7.
A suitable gel is exemplified by Intrasite® sterile hydrogel prod. no. 66027313 (Smith & Nephew Inc, St. Laurent, PQ, CA).

Experiment [4] concerns STZ-induced diabetic C57Bl6J mice. Kind of experiment: Reappearance of neuropathy after withdrawal of treatment. It is filed as in vivo, mouse. An excerpt:
Only 9 weeks later (the 17-wk time point) was there a significant reappearance of hypoalgesia in the previously treated STZ-induced diabetic mice (FIG. 12).

In experiment [5] the test system is STZ diabetic Sprague Dawley rats. Kind of experiment: Reversal of thermal hypoalgesia in diabetic rats, subcutaneous. It is filed as in vivo, rat. As to conditions: 10 mg/kg daily s.c. from week 12; 20th week, 8 weeks of treatment. As for the experimental part:
One group of adult male Sprague Dawley rats were made diabetic with a single intraperitoneal injection of 75 mg/kg STZ, while a second group of adult male rats were maintained as non-diabetic controls. The two groups of rats were monitored for the onset of […] by assessing thermal latency at 4-wk intervals.

The subject of experiment [6] is STZ-diabetic Sprague Dawley rats. In words: Prevention of tactile allodynia and sensory nerve conduction slowing in diabetic rats. It is filed as in vivo, rat. Here is the method: Two groups of adult female Sprague Dawley rats were made diabetic with a single intraperitoneal injection of 55 mg/kg STZ. […] A third group of adult male rats was maintained as non-diabetic controls. The three groups of rats were monitored for the onset of diabetic painful neuropathy by measuring paw tactile response thresholds at weeks 5 and 9 of diabetes, as taught by Calcutt (1996, Pain: 68:293-299). […] Sensory nerve conduction velocity (SNCV) was measured in the same cohorts of rats after 8 weeks of diabetes by measuring under isoflurane anesthesia, the latency of H waves in the electromyogram of interosseous muscles following electrical stimulation of the sciatic nerve at the sciatic notch and Achilles tendon and then measuring the distance between the two points of nerve stimulation, as taught by Calcutt (J. Clin. Invest. 111:507-514, 2003).

Experiment [7] concerns STZ-diabetic Swiss Webster mice. Kind of experiment: Reversal of diabetic sensory neuropathy with oral dosing. It is filed as in vivo, mouse. As for the experimental part: Male out-bred Swiss Webster mice were made diabetic with 2 injections of 90 mg/kg STZ on consecutive days. […] The mice were maintained for 8 weeks after STZ injections.
In experiment [8] the test system is NDUFS3. In words: NDUFS3 expression in DRG of STZ-diabetic mice (Western blot). It is filed as in vivo, mouse. To be noted: daily injections for 8 weeks. Here is the method:
(§1) Quantitative Western blotting was performed as described in Example 15. Quantitative Western blotting was performed as previously disclosed by Chowdhury et al (2010) and Fernyhough et al. (1999). DRG homogenates of 5-10 μg of protein were resolved on a 10% SDS-PAGE gel and electroblotted onto nitrocellulose membrane. Blots were then blocked in 5% nonfat milk containing 0.05% Tween-20, rinsed in PBS (pH 7.4) and incubated with the following antibodies: monoclonal anti-cytochrome c oxidase subunit 4 (COX IV; 1:1000, Mitosciences, Eugene, OR, US), monoclonal anti-NADH dehydrogenase (ubiquinone) iron-sulfur protein 3 (NDUFS3, 1:1000, Mitosciences, Eugene, OR, US). Extracellular signal-regulated kinase (T-ERK; 1:2000, Covance, Princeton, NJ, US) was probed as a loading control. The blots were rinsed, incubated in Western blotting Luminol Reagent (Santa Cruz Biotechnology Inc., Santa Cruz, CA, US) and imaged using a BioRad Fluor-S image analyzer (BioRad, Hercules, CA, US).

The subject of experiment [9] is COX IV. Kind of experiment: COX IV expression in DRG of STZ-diabetic mice (Western blot). It is filed as in vivo, mouse. As to conditions: daily injections for 8 weeks. Here is the method:
as §1

The subject of experiment [10] is citrate synthase. In words: Citrate synthase activity in DRG of STZ-diabetic mice. It is filed as in vivo, mouse. As to conditions: daily injections for 8 weeks, lumbar DRG. As for the experimental part:
All measurements of enzymatic activities in lumbar DRG preparations were performed spectrophotometrically using a temperature controlled Ultrospec 2100 UV-visible spectrophotometer (Biopharmacia Biotech, Uppsala, Sweden) using the methods taught by Chowdhury et al. (2010). Complex I activity was measured as rotenone-sensitive NADH: cytochrome c reductase activity. Freshly prepared assay buffer (50 mmol/l K-phosphate pH 7.4, 1 mmol/l KCN, 100 μmol/l NADH) and 10 μg protein of DRG homogenate preparation were added to the cuvette and preincubated for 3 min at 25° C. After addition of 100 μmol/l oxidized cytochrome c, the reaction was followed for 2 minutes at 550 nm and then for 2 more minutes after addition of 25 μmol/l rotenone to allow calculation of the rotenone-sensitive Complex I activity. Complex IV activity was measured at 25° C. by monitoring the absorbance decrease of reduced cytochrome c at 550 nm as disclosed by Chowdhury et al. (2000, Clin. Chim. Acta 298: 157-173). […] Activity of the Krebs cycle enzyme, citrate synthase, was determined at 25° C. in medium containing 150 mmol/l Tris-HCl (pH 8.2), 0.02% laurylmaltoside, 0.1 mmol/l dithionitrobenzoic acid and 5 μg protein according to the method of Chowdhury et al (2007, Free Radic. Res. 41: 1116-1124). The reaction was initiated by addition of 100 μmol/l acetyl CoA and changes in absorbance at 412 nm were measured for 1 minute. […]

Setting [11] is: 10 mg/kg daily s.c., two months after STZ, vs control mice.
[12] abbreviates: control (non-diabetic) mice, 10% hydrogel, treated hindpaw.
[13] abbreviates: diabetic mice, 2% or 10% hydrogel, vs control mice.
Setting [14] is: daily oral gavage for 8 weeks from week 8.

Bounds are passed on as bounds.

Turning to `CN1CCN(CC(=O)N2c3ccccc3C(=O)Nc3cccnc32)CC1` [pirenzepine, 11-[2-(4-methylpiperazin-1-yl)acetyl]-5H-pyrido[2,3-b][1,4]benzodiazepin-6-1], the “concentration that significantly increased total neurite outgrowth” value in experiment [1] was at least 0.003 µM. For the same compound, in experiment [2] (setting [11]), the “hind paw thermal response latency” value was “not significantly different from the control non-diabetic mice” and the “paw levels of IENF” value is given as “no significant changes”. For the same compound, in experiment [2] (diabetic mice), the “motor nerve conduction velocity” value was “prevented deficits in motor nerve conduction velocity”. For the same compound, in experiment [3] (setting [12]), the “IENF per mm of skin” value was “numerically, but statistically insignificant, increases” and the “SNP per mm of skin” value is on record as “numerically, but statistically insignificant, increases”. Besides, the thermal response latency result in [3] (control (non-diabetic) mice, daily topical hydrogel comprising 10% pirenzepine) is recorded as “not affected”. In [3] (setting [13]), the “levels of IENF in treated paw” value was “no significant changes” and the “levels of SNP in treated paw” value is reported as “no significant changes”. Besides, in experiment [3] (diabetic mice, daily topical 2% or 10% hydrogel, vs control mice), the “thermal response latency in treated paw” value was “did not demonstrate any significant changes”. Also, the thermal hypoalgesia entry in experiment [4] (10 mg/kg daily s.c., after 8 weeks) is on record as “hypoalgesia was prevented”. For the same compound, in experiment [4] (treatment stopped at 8 weeks, 17-wk time point), the “time after stopping treatment to significant reappearance of hypoalgesia” value is 9 weeks. Besides, the thermal latency entry in experiment [5] is “dropped to approximate the levels in the non-diabetic control rats”. In experiment [6] (10 mg/kg daily s.c., after 5 weeks of diabetes), the “paw tactile response thresholds” value is “significantly higher than vehicle treated diabetic rats”. Besides, the “sensory nerve conduction velocity (SNCV)” value in experiment [6] (10 mg/kg daily s.c., after 8 weeks of diabetes) is given as “partially prevented this deficit”. Further, the “paw tactile response thresholds” value in [6] (10 mg/kg daily s.c., week 9 of diabetes) is on record as “not different from control rats”. Besides, in experiment [6] (daily s.c., after 5 or 9 weeks of treatment), the paw tactile allodynia result is recorded as “prevents paw tactile allodynia”. For the same compound, in experiment [7] (setting [14]), the “loss of IENF” value is recorded as “reversed loss”, the “loss of SNP” value is listed as “reversed loss” and the thermal hypoalgesia entry was “reversed thermal hypoalgesia”. The “efficacy of oral formulation” value in experiment [7] (dissolved in water, administered orally to mice) is recorded as “exhibited efficacy”. For the same compound, in experiment [8], the “expression of NDUFS3 mitochondrial protein” value is given as “restored the expression”. The “expression of COX IV mitochondrial protein” value in experiment [9] is reported as “restored the expression”. The “activity of citrate synthase” value in experiment [10] is on record as “restored the deficits”.
